Each block holds one molecule with its values, some of them ahead of it.
Legend:
[1] = tested on: CM and EM CD8+ T lymphocytes; test: Rh123 efflux assay with or without vinblastine, flow cytometry; assay type: cell-based, human; settings: PBMC loaded with 10 μg/ml Rh123, efflux 30 minutes at 37° C.
Protocol: PBMC were separated from fresh peripheral blood by density gradient centrifugation, washed in RPMI 1640/10% bovine serum albumin (herein known as efflux buffer) and resuspended at 1×10^6/ml in ice cold efflux buffer with 10 μg/ml Rh123. PBMC were incubated for 30 minutes on ice before washing three times in ice cold efflux buffer and resuspending in pre-warmed efflux buffer, with or without vinblastine, for 30 minutes at 37° C. At 30 minutes, PBMC were washed once in ice cold PBS/0.2% BSA (FACS buffer) and labeled with antibodies to CD4, CD16, TCRγδ, Vα24, CD3, CD8α, CD95, CD62L, CD161 and IL-18Rα for 20 minutes on ice. After washing in ice cold FACS buffer, samples were analyzed on a BD FacsARIA flow cytometer.
CM and EM subsets were identified as CD62L^+ or CD62L^− events, respectively, in the CD4^−/CD16^−/TCRγδ^−/Vα24^−/CD3^+/CD8^+/CD95^+ population. Rh123 fluorescence was identified with appropriate compensation and a 530/30 emission filter after laser excitation at 488 nm. Rh123-effluxing events were defined as those with fluorescence lower than the mean fluorescence intensity identified after culture in the presence of vinblastine efflux blockade.

MDR-1 = MDR-1 (Homo sapiens, UniProt P08183); settings: daunorubicin loaded at 2.5 μM, efflux 1 hour at 37° C.; vinblastine 25 μM; PK11195 and cyclosporine A data not shown
[2] = tested on: CMhi and EMhi CD8+ T cells; test: Daunorubicin-induced apoptosis of sorted CM and EM subsets, Annexin V/DAPI; assay type: cell-based, human
Excerpt: CMhi and EMhi and their non-effluxing IL-18Rα^lo/neg counterparts (CMlo and EMlo) were isolated using negative immunomagnetic selection of CD8^+ T cells with biotinylated antibodies to non-CD8^+ T cells, followed by surface labeling with fluorochrome-conjugated streptavidin to identify non-CD8^+ T cells, CD95, CD62L and IL-18Rα and sorting on a BD FacsARIA flow sorter. CM and EM CD8^+ T cells were defined as streptavidin^−/CD95^+/CD62L^+ or streptavidin^−/CD95^+/CD62L^−, respectively. CMhi and EMhi were defined by high expression of IL-18Rα. Effluxing and non-effluxing CM and EM subsets were cultured for 44 hours in the presence or absence of daunorubicin (an anthracycline chemotherapeutic agent, effluxed by the ABC-B1 cotransporter, MDR-1), with or without MDR-1 blockade with the peripheral benzodiazepine receptor antagonist, PK11195. Cultures were harvested, washed twice with cold PBS and stained with Annexin V and DAPI before analysis.

Sequence of MDR-1 (P08183 whole entry): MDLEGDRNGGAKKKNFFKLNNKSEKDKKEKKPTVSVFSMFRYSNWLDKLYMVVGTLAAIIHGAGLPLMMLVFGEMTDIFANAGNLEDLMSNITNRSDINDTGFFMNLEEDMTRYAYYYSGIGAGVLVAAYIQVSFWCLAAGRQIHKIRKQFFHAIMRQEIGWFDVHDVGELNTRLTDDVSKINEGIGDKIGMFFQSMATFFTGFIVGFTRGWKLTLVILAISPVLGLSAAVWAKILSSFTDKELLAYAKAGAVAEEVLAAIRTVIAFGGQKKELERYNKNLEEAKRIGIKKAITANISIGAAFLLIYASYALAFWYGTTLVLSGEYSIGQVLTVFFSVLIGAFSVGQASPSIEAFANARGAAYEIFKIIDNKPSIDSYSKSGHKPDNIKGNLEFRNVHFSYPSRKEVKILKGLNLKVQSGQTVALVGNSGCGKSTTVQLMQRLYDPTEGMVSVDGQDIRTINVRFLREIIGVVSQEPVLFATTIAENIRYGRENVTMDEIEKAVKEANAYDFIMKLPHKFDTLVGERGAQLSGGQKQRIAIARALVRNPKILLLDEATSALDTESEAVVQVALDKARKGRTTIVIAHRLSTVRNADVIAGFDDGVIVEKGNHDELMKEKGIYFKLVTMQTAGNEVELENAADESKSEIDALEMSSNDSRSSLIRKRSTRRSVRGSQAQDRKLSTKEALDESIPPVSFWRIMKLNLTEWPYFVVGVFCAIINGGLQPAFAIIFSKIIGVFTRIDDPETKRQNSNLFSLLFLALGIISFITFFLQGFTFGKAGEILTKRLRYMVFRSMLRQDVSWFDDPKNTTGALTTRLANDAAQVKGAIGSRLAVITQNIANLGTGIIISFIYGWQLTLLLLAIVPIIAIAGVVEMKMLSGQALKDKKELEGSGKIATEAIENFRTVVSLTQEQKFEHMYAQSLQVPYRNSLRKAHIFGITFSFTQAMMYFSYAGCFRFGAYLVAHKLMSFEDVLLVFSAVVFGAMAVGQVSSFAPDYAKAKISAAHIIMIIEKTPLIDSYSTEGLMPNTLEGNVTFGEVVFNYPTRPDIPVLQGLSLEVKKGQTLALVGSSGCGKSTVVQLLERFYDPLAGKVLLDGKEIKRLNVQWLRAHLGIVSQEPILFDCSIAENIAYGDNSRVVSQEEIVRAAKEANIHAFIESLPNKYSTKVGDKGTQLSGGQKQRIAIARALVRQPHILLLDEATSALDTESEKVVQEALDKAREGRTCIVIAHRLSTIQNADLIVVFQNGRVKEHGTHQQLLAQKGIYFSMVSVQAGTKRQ

Inhibition of daunorubicin efflux from CMhi and EMhi (MDR-1): inhibition of efflux
Compound: CC[C@]1(O)C[C@@H]2CN(CCc3c([nH]c4ccccc34)[C@@](C(=O)OC)(c3cc4c(cc3OC)N(C)[C@H]3[C@@](O)(C(=O)OC)[C@H](OC(C)=O)[C@]5(CC)C=CCN6CC[C@]43[C@@H]65)C2)C1 [vinblastine]
Rh123 efflux in the presence of vinblastine [1]: blocked

Compound: COc1cccc2c1C(=O)c1c(O)c3c(c(O)c1C2=O)C[C@@](O)(C(C)=O)C[C@@H]3O[C@H]1C[C@H](N)[C@H](O)[C@H](C)O1 [daunorubicin]
Apoptosis of CMhi and EMhi induced by culture with daunorubicin ([2]; daunorubicin 0.1 uM, 44 hours culture): resistant to apoptosis

Compound: CCC(C)N(C)C(=O)c1cc2ccccc2c(-c2ccccc2Cl)n1 (centres unmarked) [PK11195]
Viability of subsets cultured with PK11195 alone ([2]; PK11195 without daunorubicin, 44 hours culture): does not impair viability
Cell death of CMhi and EMhi on MDR-1 inhibition during daunorubicin culture ([2]; daunorubicin with PK11195, 44 hours culture): increased cell death
